How the values were obtained:
HDAC2 = HDAC2 (Homo sapiens, UniProt Q92769); design: purchased Reaction Biology Corp. (Malvern, PA); conditions: previously reported; given for HDAC1/2 together; cited from earlier work
HDAC9 = HDAC9 (Homo sapiens, UniProt Q9UKV0); assay: In vitro fluorescence-based HDAC inhibition assay (Reaction Biology); conditions: read-out: IC50 HDAC9; experiment performed once
UM-UC-3-HDAC4 = assay: MTT viability assay (CC50); format: cell-based, human; conditions: UM-UC-3-HDAC4 (HDAC4-overexpressing), 72 h
Method: (§1) HDAC4 cDNA from the pcDNA-HDAC4-FLAG plasmid kindly provided by Tso-Pang Yao (Addgene plasmid # 30485) was cloned into the lentiviral vector puc2CL12IPwo using standard techniques, thereby creating the vector puc2CL12IPwo-HDAC4-FLAG (Additional file 1: Figure S1). Integrity of the HDAC4 coding sequence was verified by sequencing. Lentivirus production and cell transduction were performed as previously described. In brief, to produce replication-deficient lentiviruses, HEK-293T cells were transfected with helper plasmid expression construct (pCD/NL-BH [35]), envelope vector (pczVSV-G [36]), and the vector plasmids puc2CL12IPwo or puc2CL12IPwo-HDAC4-FLAG. Viral particles were harvested 48 h after transfection and used to transduce VM-CUB1 and UM-UC-3 cells using 8 μg/ml polybrene (Sigma Aldrich, St. Louis, MO). Twenty-four hours after transduction, the supernatant containing viral particles was removed and the transduced cells were selected with 4 (VM-CUB1) or 1 (UM-UC-3) μg/ml puromycin (Invitrogen, Carlsbad, CA) for 7 days. Stable overexpression of HDAC4 was confirmed by Western blot analysis of cells from several passages.
(§2) For the determination of cellular mean cytotoxic concentration (CC50), UCCs, non-malignant control cells, and HDAC4-overexpressing clones were seeded in a 96-well format and treated once with a range of defined concentrations of the HDAC inhibitors. After 72 h, viability was quantified by NAD(P)H-dependent 3-(4,5-dimethylthiazol-2-yl)-2,5-diphenyltetrazolium bromide dye reduction assay (MTT, Sigma Aldrich, St. Louis, MO). CC50 values were estimated from three independent experiments by non-linear regression analysis (four-parameter logistic equation) using Prism 4.0 (Graph Pad) or Origin 8.0 (Origin Lab, Northhampton, GB). For time-dependent proliferation experiments, viability of untreated or inhibitor-treated cells was measured after 24, 48, and 72 h.

VM-CUB1-LV = assay: MTT viability assay (CC50); format: cell-based, human; conditions: VM-CUB1-LV (empty vector), 72 h
Method: as §1, §2

UM-UC-3-LV = assay: MTT viability assay (CC50); format: cell-based, human; conditions: UM-UC-3-LV (empty vector), 72 h
Method: as §1, §2

VM-CUB1-HDAC4 = assay: MTT viability assay (CC50); format: cell-based, human; conditions: VM-CUB-HDAC4 (HDAC4-overexpressing), 72 h
Method: as §1, §2

VM-CUB1 = assay: MTT viability assay (CC50); format: cell-based, human; conditions: VM-CUB1, MTT, 72 h of incubation
Method: (§3) Further experiments were performed in VM-CUB1 and UM-UC-3 cells overexpressing HDAC4 (see below). Standard UCCs were obtained from the DSMZ (Braunschweig, Germany) and Dr. H.B. Grossmann HB (Houston, USA). For comparison, we investigated the spontaneously immortalized normal human bladder cell line HBLAK (provided by CELLnTEC, Bern, Switzerland) and the immortalized human embryonic kidney cell line HEK-293 (provided by Dr. V. Kolb-Bachofen, Duesseldorf, Germany). Cells were cultured and treated in DMEM GlutaMAX-I (Gibco, Darmstadt, Germany; UCCs and HEK-293) supplemented with 10% fetal calf serum (Biochrom, Berlin, Germany), except for HBLAK cultured in CnT-Prime Epithelial Culture Medium (CELLnTEC, Bern, Switzerland; HBLAK), at 37 °C and 5% CO2. STR (short tandem repeat) profiling via DNA fingerprint analysis was performed for all cell lines. Primary cultures of normal urothelial cells (UP) were established from healthy ureters removed during tumor nephrectomy and cultured as described. These cultures were used with informed consent of the patients and approval by the Ethics Committee of the Medical Faculty of the Heinrich-Heine-University, study number 1788. All inhibitors were dissolved in DMSO and stored as 10 mM stocks. […] The pan-HDACi inhibitor SAHA previously studied in detail was used for comparison. Solvent control cells were treated with equal amounts of DMSO.
as §2

HBLAK = assay: MTT viability assay (CC50); format: cell-based, human; conditions: 72 h of incubation
Method: as §3, §2

HEK-293 = assay: MTT viability assay (CC50); format: cell-based, human; conditions: HEK-293, MTT, 72 h of incubation
Method: as §3, §2

639-V = assay: MTT viability assay (CC50); format: cell-based, human; conditions: 72 h of incubation
Method: as §3, §2

[1] = test system: three UCCs (VM-CUB1, UM-UC-3, 639-V); assay: qRT-PCR of TS and p21CIP1 mRNA; format: cell-based, human; conditions: 19i 2 μM, 24 or 48 h, all three UCCs
Method: Total cell RNA was isolated by the Qiagen RNeasy Mini Kit (Qiagen, Hilden, Germany) according to the manufacturer’s protocol, and cDNA was synthesized using QuantiTect Reverse Transcription Kit (Qiagen, Hilden, Germany) with an extended incubation time of 30 min at 42 °C as previously described. Target mRNA expression was measured by qRT-PCR with QuantiTect SYBR Green RT-PCR Kit (Qiagen, Hilden, Germany) on the LightCycler® 96 Real-Time PCR system with software version 1.1 (Roche Diagnostics, Rotkreuz, Switzerland). All used primers, comprising QuantiTect Primer assays (Qiagen, Hilden, Germany), self-designed target primers, and primers for the reference housekeeping gene TBP (TATA-box binding protein), are listed in Additional file 2: Table S1.

UC cells = assay: Clonogenicity assay with Giemsa staining; format: cell-based, human; conditions: 2 μM 19i for 48 h, replated
Method: Then, depending on the cell line, 500–1000 cells were seeded in 6-cm plates, and 10 to 15 days later, colonies were washed with PBS, fixed in methanol, and stained with Giemsa (Merck Millipore, Darmstadt, Germany).

Chain of HDAC9 (Q9UKV0 whole entry): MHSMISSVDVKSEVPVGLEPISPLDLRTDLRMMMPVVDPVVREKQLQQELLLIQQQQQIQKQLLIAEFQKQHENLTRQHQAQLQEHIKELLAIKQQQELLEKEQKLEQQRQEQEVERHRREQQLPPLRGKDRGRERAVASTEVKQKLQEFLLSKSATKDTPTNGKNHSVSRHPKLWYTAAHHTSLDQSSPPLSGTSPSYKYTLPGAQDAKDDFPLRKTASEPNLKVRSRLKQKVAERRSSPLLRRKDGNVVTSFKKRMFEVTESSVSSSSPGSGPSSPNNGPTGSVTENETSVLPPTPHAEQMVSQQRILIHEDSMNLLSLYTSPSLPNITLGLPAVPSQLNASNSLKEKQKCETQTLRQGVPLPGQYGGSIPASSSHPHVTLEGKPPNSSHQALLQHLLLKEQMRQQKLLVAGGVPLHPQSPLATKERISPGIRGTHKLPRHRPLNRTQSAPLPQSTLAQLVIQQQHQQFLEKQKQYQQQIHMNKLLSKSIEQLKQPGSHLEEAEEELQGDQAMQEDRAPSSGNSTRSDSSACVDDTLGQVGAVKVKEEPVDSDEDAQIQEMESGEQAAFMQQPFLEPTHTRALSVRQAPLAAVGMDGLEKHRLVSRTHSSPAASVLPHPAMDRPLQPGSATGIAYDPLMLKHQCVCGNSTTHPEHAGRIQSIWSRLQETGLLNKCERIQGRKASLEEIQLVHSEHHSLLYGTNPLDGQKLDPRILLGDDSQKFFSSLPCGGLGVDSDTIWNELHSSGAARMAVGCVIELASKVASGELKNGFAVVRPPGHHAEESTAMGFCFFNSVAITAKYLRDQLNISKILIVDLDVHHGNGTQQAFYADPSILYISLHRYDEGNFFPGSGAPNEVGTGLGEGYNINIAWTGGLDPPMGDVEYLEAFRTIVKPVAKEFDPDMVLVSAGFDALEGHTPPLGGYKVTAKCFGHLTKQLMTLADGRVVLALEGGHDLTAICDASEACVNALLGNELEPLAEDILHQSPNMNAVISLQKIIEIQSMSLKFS
Chain of HDAC2 (Q92769 whole entry): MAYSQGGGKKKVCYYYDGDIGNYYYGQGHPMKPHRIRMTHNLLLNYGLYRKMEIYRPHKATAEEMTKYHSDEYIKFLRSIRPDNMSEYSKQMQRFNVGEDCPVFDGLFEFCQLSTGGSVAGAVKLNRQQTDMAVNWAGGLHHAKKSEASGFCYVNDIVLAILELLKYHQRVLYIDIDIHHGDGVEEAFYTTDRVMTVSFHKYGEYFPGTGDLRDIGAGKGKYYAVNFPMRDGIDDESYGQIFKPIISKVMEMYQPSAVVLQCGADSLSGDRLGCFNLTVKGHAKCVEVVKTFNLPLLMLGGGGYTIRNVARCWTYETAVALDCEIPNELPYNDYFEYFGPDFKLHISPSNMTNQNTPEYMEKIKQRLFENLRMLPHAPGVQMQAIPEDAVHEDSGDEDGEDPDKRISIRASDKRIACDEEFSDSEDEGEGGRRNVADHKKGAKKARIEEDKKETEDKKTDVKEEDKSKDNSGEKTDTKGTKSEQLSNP

SMILES: Cc1cc(C)cc(C(=O)NOCCCCCC(=O)NO)c1 [19i]
- in vitro IC50 HDAC2 (HDAC2): sub-micromolar
- IC50 (HDAC9): 198 µM
- CC50 (UM-UC-3-HDAC4): 740 nM
- CC50 (VM-CUB1-LV): 950 nM
- CC50 (UM-UC-3-LV): 790 nM
- CC50 (VM-CUB1-HDAC4): 630 nM
- CC50 (VM-CUB1): 970 nM
- CC50 (HBLAK): > 5 µM
- CC50 (HEK-293): 610 nM
- CC50 (639-V): 1030 nM
- p21CIP1 mRNA expression [1]: increased
- thymidylate synthase (TS) mRNA expression [1]: decreased
- clonogenic potential (UC cells): impaired the clonogenic potential

From article PMC6069857, “Effects of novel HDAC inhibitors on urothelial carcinoma cells” (Clinical Epigenetics, 2018)
